The numbers were not newly measured in patent US7955624B2, “Compositions and methods for increasing adipose metabolism, lipolysis or lipolytic metabolism via thermogenesis” (HHC Formulations Ltd., priority 2006, dated 2011), which cites them from elsewhere.

For series [1] the following is noted: active treatment versus placebo.
The conditions of series [2]: mice.
Assay in series [3]: not given
This is another data set of the same source.

For series [4] the following is noted: mice. The source holds these as a separate data set.

As for `O=C(O)c1cccnc1` [Niacin, nicotinic acid], in series [1], the “high-density lipoprotein cholesterol (HDL-C)” value was “increase”, the “low-density lipoprotein cholesterol (LDL-C)” value is reported as “decrease”, the total cholesterol result is given as “decrease” and the triglyceride levels result is recorded as “decrease”.
For the compound `Cn1c(=O)c2c(ncn2C)n(C)c1=O` [caffeine], the basal metabolic rate result (humans) is on record as “increase the basal metabolic rate”. The weight loss entry (obese women, caffeine supplementation) is “Significant weight loss”.
With `CN(C)CCO` [deanol, dimethylaminoethanol], the “plasma and tissue levels of choline” value in series [2] is “increase”.
For the compound `O=P(O)(O)O[C@H]1[C@H](OP(=O)(O)O)[C@@H](OP(=O)(O)O)[C@H](OP(=O)(O)O)[C@@H](OP(=O)(O)O)[C@H]1OP(=O)(O)O` [inositol hexaphosphate, Inositol hexaphosphate], the “reducing triglycerides, cholesterol and lipogenic enzymes” value in series [3] (0.02% to 10% phytic acid in a high sucrose diet) is given as “dose-dependent response”. Besides, in series [3] (highest dose, 10% phytic acid), the “food intake and growth” value is listed as “reduction”.
As to evodiamine, the “secretion of adrenergic signaling molecules” value with bovine adrenal medulla is given as “increase the secretion”. Further, in series [4], the body fat result is “decrease body fat”, the energy expenditure entry is given as “increase energy expenditure” and the lipid mobilization entry is listed as “increase”.
